Assay results as given in the supplement of paper PMC8671470.

Tests used:
Conditions in all cases: 72 h
[1] = test system: BV-173
Method in brief: (§1)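 The IC50 was read from log-logistic dose–response fits. Fifteen myeloid leukaemia lines were exposed for 72 h at 37 °C with 5% CO2 to five tenfold doses from 1 to 10,000 nM in duplicate. ATP luminescence, normalised to vehicle and to a 10 µM positive control, was fitted with four parameters.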

[2] = test system: HEL
Method in brief: as §1

[3] = test system: HL-60
Method in brief: as §1

[4] = test system: K-562
Method in brief: as §1

[5] = test system: KCL-22
Method in brief: as §1

[6] = test system: KG-1
Method in brief: as §1

[7] = test system: KU-812
Method in brief: as §1

[8] = test system: LAMA-84
Method in brief: as §1

[9] = test system: ML-2
Method in brief: as §1

[10] = test system: MOLM-13
Method in brief: as §1

[11] = test system: MV4-11
Method in brief: as §1

[12] = test system: Mono-Mac-6
Method in brief: as §1

[13] = test system: NOMO-1
Method in brief: as §1

[14] = test system: SHI-1
Method in brief: as §1

[15] = test system: THP-1
Method in brief: as §1

[16] = test system: BV-173; assay: cell viability (% survival relative to DMSO control, bortezomib = 0%); higher = less cytotoxic
Method in brief: (§2)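 Percent survival figures are means of duplicate wells. They were obtained by CellTiter-Glo luminescence after 10 AML and 5 CML cell lines spent 72 h at 37 °C with 5% CO2 in 384-well plates with compounds at 1, 10, 100, 1000 or 10000 nM. Vehicle was set to 100% and a 10 µM positive control to 0%.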

[17] = test system: HEL; assay: as above
Method in brief: as §2

[18] = test system: HL-60; assay: as above
Method in brief: as §2

[19] = test system: K-562; assay: as above
Method in brief: as §2

[20] = test system: KCL-22; assay: as above
Method in brief: as §2

[21] = test system: KG-1; assay: as above
Method in brief: as §2

[22] = test system: KU-812; assay: as above
Method in brief: as §2

[23] = test system: LAMA-84; assay: as above
Method in brief: as §2

[24] = test system: ML-2; assay: as above
Method in brief: as §2

[25] = test system: MOLM-13; assay: as above
Method in brief: as §2

[26] = test system: MV4-11; assay: as above
Method in brief: as §2

[27] = test system: Mono-Mac-6; assay: as above
Method in brief: as §2

[28] = test system: NOMO-1; assay: as above
Method in brief: as §2

[29] = test system: SHI-1; assay: as above
Method in brief: as §2

[30] = test system: THP-1; assay: as above
Method in brief: as §2

CN(CCCOc1ccc(Cc2ccccc2)cc1)CCC(=O)O
Conditions	IC50 (cell viability) [µM]
[1]	> 10
[2]	> 10
[3]	> 10
[4]	> 10
[5]	> 10
[6]	> 10
[7]	> 10
[8]	> 10
[9]	> 10
[10]	> 10
[11]	> 10
[12]	> 10
[13]	> 10
[14]	> 10
[15]	> 10

cell viability [%]
Conditions	1 nM	10 nM	100 nM	1000 nM	10000 nM
[16]	96.8	98.4	100	99.4	95.8
[17]	107	113	102	129	110
[18]	99.9	102	120	191	115
[19]	103	107	98.1	112	104
[20]	106	103	94.8	116	110
[21]	94.1	110	104	108	92.6
[22]	99.9	105	90.9	106	94.2
[23]	110	119	95	98.2	91.9
[24]	105	97	103	113	107
[25]	119	122	91.9	133	79.1
[26]	99.1	97.6	96	125	87.8
[27]	106	90.1	101	107	89
[28]	106	107	95.1	106	101
[29]	106	102	116	115	110
[30]	104	103	96.1	98.4	102

CCn1c(=Cc2cccc[n+]2CC)sc(=C2Sc3ccccc3N2C)c1=O [MKT 077]
Conditions	IC50 (cell viability) [µM]
[1]	> 10
[2]	> 10
[3]	4.45
[4]	3.59
[5]	> 10
[6]	> 10
[7]	> 10
[8]	> 10
[9]	> 10
[10]	3.76
[11]	3.37
[12]	> 10
[13]	> 10
[14]	3.28
[15]	> 10

cell viability [%]
Conditions	1 nM	10 nM	100 nM	1000 nM	10000 nM
[16]	107	108	102	95.2	83.4
[17]	117	87	95.7	105	125
[18]	101	84.5	101	136	2.97
[19]	109	88.1	103	108	1.35
[20]	106	98.5	90	103	107
[21]	99	103	138	102	79.3
[22]	101	103	107	98.3	61.8
[23]	105	94.7	114	104	71.6
[24]	91.7	98	106	102	101
[25]	115	108	119	115	0.148
[26]	113	99.9	109	104	0.22
[27]	100	110	112	102	87.8
[28]	98	96.2	98.1	94	95.2
[29]	95.9	98.7	97.3	98.8	2.85
[30]	99.6	105	108	98.2	86.1
